Measurements published in patent US20140323501A1, “AMINO-PROPYLENE-GLYCOL DERIVATIVES, PREPARATION METHOD AND PHARMACEUTICAL COMPOSITION AND USE THEREOF” (INSTITUTE OF MATERIA MEDICA, CHINESE ACADEMY OF MEDICAL …, priority 2011, published 2014).

Tests used:
[1] = test system: SD rat peripheral blood lymphocyte counts; experiment: Effect of S1P1 receptor agonists on rat vein (peripheral) blood lymphocyte counts; format: in vivo; conditions: for LYM 0 h: before administration; for Δ %: largest decrease of lymphocyte count vs 0 h
Description: 10 mg of drugs were measured and placed in a mortar. After 4 mL of 5‰ CMC-Na were added, homogenous suspension was prepared in the mortar (one drop of twain-80 was added to help dissolving). Dosage: 10 mg/Kg, dose volume: 0.4 mL/100 g, intragastric administration.
Every medicated group was assigned three rats.
After the experimental animals stable in the clean environment for 24 h, 10 μL of blood was withdrawn via tail vein and diluted into 2 mL of diluents quickly. […] Then the prepared drugs were administered intragastrically to the animals. […] The animals were killed after 24 h.

SD rat heart rate = experiment: Effect of S1P1 receptor agonists on rat heart rate; format: in vivo; conditions: for HR delta %: (lowest heart rate postdose − pre-administration)/pre-administration; for heart rate pre-administration: before administration
Description: 2.1 Experimental animals: SD rats, purchased from Weitonglihua. Weight: 200-240 g, male. Every test group was assigned three rats. The normal rats were set as control group and determined as the medicated group parallelly for three times. The positive drug FTY720 was repeated three times.
2.2 Apparatus: Intelligent non-invasive blood pressure measurement meter (Softron, Japan).
(1) Preparation: The drug was dissolved to reach a concentration of 2.5 mg/mL.
(1) Determination of rat heart rate before administration. Repeat for three times.
(2) Administration: intragastric administration after SD rats weighed.
(3) Determination of rat heart rate at the time 0.5 h, 1 h, 3 h, 6 h, 8 h and 24 h after administration. Repeat for three times
Every drug was tested with three SD rats parallelly. […] Delta % of heart rate=(the lowest heart rate postdose−the heart rate pre-administration)/the heart rate pre-administration, reflects the influence of drugs on rat heart rate.

[2] = Table 6, intragastric, listed as FTY720-1
[3] = Table 6, intragastric, listed as FTY720-2

SMILES: CCCCCCCCc1ccc(CCC(N)(CO)CO)cc1 [FTY720, reference compound]
- LYM 0 h ([1]; Table 1, 10 mg/Kg intragastric): 4.20 ± 0.57 × 10^9/L
- LYM 1 h ([1]; Table 1, 10 mg/Kg intragastric, 1 h after administration): 4.75 ± 2.76 × 10^9/L
- LYM 2 h ([1]; Table 1, 10 mg/Kg intragastric, 2 h after administration): 2.45 ± 0.07 × 10^9/L
- LYM 4 h ([1]; Table 1, 10 mg/Kg intragastric, 4 h after administration): 2.75 ± 0.78 × 10^9/L
- LYM 8 h ([1]; Table 1, 10 mg/Kg intragastric, 8 h after administration): 1.80 ± 0.14 × 10^9/L
- LYM 12 h ([1]; Table 1, 10 mg/Kg intragastric, 12 h after administration): 1.00 ± 0.00 × 10^9/L
- LYM 24 h ([1]; Table 1, 10 mg/Kg intragastric, 24 h after administration): 2.60 ± 0.42 × 10^9/L
- compared with 0 h (%) 1 h ([1]; Table 1, lymphocyte count change vs 0 h, 10 mg/Kg intragastric, 1 h): −13.10%
- compared with 0 h (%) 2 h ([1]; Table 1, lymphocyte count change vs 0 h, 10 mg/Kg intragastric, 2 h): 41.67%
- compared with 0 h (%) 4 h ([1]; Table 1, lymphocyte count change vs 0 h, 10 mg/Kg intragastric, 4 h): 34.52%
- compared with 0 h (%) 8 h ([1]; Table 1, lymphocyte count change vs 0 h, 10 mg/Kg intragastric, 8 h): 57.14%
- compared with 0 h (%) 12 h ([1]; Table 1, lymphocyte count change vs 0 h, 10 mg/Kg intragastric, 12 h): 76.19%
- compared with 0 h (%) 24 h ([1]; Table 1, lymphocyte count change vs 0 h, 10 mg/Kg intragastric, 24 h): 38.10%
- LYM 0 h ([1]; Table 3, 10 mg/Kg intragastric): 4.97 ± 1.06 ×10^9/L
- LYM 1 h ([1]; Table 3, 10 mg/Kg intragastric, 1 h): 3.18 ± 0.52 ×10^9/L
- LYM 2 h ([1]; Table 3, 10 mg/Kg intragastric, 2 h): 3.15 ± 0.71 ×10^9/L
- LYM 4 h ([1]; Table 3, 10 mg/Kg intragastric, 4 h): 3.44 ± 1.30 ×10^9/L
- LYM 6 h ([1]; Table 3, 10 mg/Kg intragastric, 6 h): 2.78 ± 0.84 ×10^9/L
- LYM 8 h ([1]; Table 3, 10 mg/Kg intragastric, 8 h): 2.32 ± 0.90 ×10^9/L
- LYM 12 h ([1]; Table 3, 10 mg/Kg intragastric, 12 h): 2.33 ± 0.75 ×10^9/L
- LYM 23 h ([1]; Table 3, 10 mg/Kg intragastric, 23 h): 1.78 ± 0.29 ×10^9/L
- Δ % ([1]; Table 3, 10 mg/Kg intragastric): 64.09%
- LYM 0 h ([1]; Table 5, 10 mg/Kg intragastric): 3.80 ± 0.14 × 10^9/L
- LYM 1 h ([1]; Table 5, 10 mg/Kg intragastric, 1 h): 2.30 ± 0.85 × 10^9/L
- LYM 4 h ([1]; Table 5, 10 mg/Kg intragastric, 4 h): 1.20 ± 0.36 × 10^9/L
- LYM 8 h ([1]; Table 5, 10 mg/Kg intragastric, 8 h): 1.07 ± 0.50 × 10^9/L
- LYM 12 h ([1]; Table 5, 10 mg/Kg intragastric, 12 h): 1.27 ± 0.23 × 10^9/L
- LYM 24 h ([1]; Table 5, 10 mg/Kg intragastric, 24 h): 1.60 ± 0.57 × 10^9/L
- Δ % ([1]; Table 5): 71.93%
- LYM 0 h ([1]; Table 7, 10 mg/Kg intragastric): 3.80 ± 0.14 × 10^9/L
- LYM 1 h ([1]; Table 7, 10 mg/Kg intragastric, 1 h): 2.30 ± 0.85 × 10^9/L
- LYM 4 h ([1]; Table 7, 10 mg/Kg intragastric, 4 h): 1.20 ± 0.36 × 10^9/L
- LYM 8 h ([1]; Table 7, 10 mg/Kg intragastric, 8 h): 1.07 ± 0.50 × 10^9/L
- LYM 12 h ([1]; Table 7, 10 mg/Kg intragastric, 12 h): 1.27 ± 0.23 × 10^9/L
- LYM 24 h ([1]; Table 7, 10 mg/Kg intragastric, 24 h): 1.60 ± 0.57 × 10^9/L
- Δ % ([1]; Table 7): 71.93%
- LYM 0 h ([1]; Table 8, 10 mg/Kg intragastric): 4.20 ± 0.57 × 10^9/L
- LYM 1 h ([1]; Table 8, 10 mg/Kg intragastric, 1 h): 4.75 ± 2.76 × 10^9/L
- LYM 4 h ([1]; Table 8, 10 mg/Kg intragastric, 4 h): 2.75 ± 0.78 × 10^9/L
- LYM 8 h ([1]; Table 8, 10 mg/Kg intragastric, 8 h): 1.80 ± 0.14 × 10^9/L
- LYM 12 h ([1]; Table 8, 10 mg/Kg intragastric, 12 h): 1.00 ± 0.00 × 10^9/L
- LYM 24 h ([1]; Table 8, 10 mg/Kg intragastric, 24 h): 2.60 ± 0.42 × 10^9/L
- Δ % ([1]; Table 8): 76.19%
- HR delta % (SD rat heart rate; Table 2, listed as FTY720-1): 19.60%
- HR delta % (SD rat heart rate; Table 2, listed as FTY720-2): 17.80%
- HR delta % (SD rat heart rate; Table 2, listed as FTY720-3): 14.00%
- HR delta % (SD rat heart rate; Table 2, listed as average of FTY720): 16.6%
- heart rate 0.5 h (SD rat heart rate; Table 2, intragastric, 0.5 h after administration, listed as FTY720-1): 392.33
- heart rate 0.5 h (SD rat heart rate; Table 2, intragastric, 0.5 h after administration, listed as FTY720-2): 361.28
- heart rate 0.5 h (SD rat heart rate; Table 2, intragastric, 0.5 h after administration, listed as FTY720-3): 379.67
- heart rate 0.5 h (SD rat heart rate; Table 2, intragastric, 0.5 h after administration, listed as average of FTY720): 377.76
- heart rate 1 h (SD rat heart rate; Table 2, intragastric, 1 h after administration, listed as FTY720-1): 361.00
- heart rate 1 h (SD rat heart rate; Table 2, intragastric, 1 h after administration, listed as FTY720-2): 331.71
- heart rate 1 h (SD rat heart rate; Table 2, intragastric, 1 h after administration, listed as FTY720-3): 370.62
- heart rate 1 h (SD rat heart rate; Table 2, intragastric, 1 h after administration, listed as average of FTY720): 354.44
- heart rate 3 h (SD rat heart rate; Table 2, intragastric, 3 h after administration, listed as FTY720-1): 318.50
- heart rate 3 h (SD rat heart rate; Table 2, intragastric, 3 h after administration, listed as FTY720-2): 329.33
- heart rate 3 h (SD rat heart rate; Table 2, intragastric, 3 h after administration, listed as FTY720-3): 355.83
- heart rate 3 h (SD rat heart rate; Table 2, intragastric, 3 h after administration, listed as average of FTY720): 334.55
- heart rate 6 h (SD rat heart rate; Table 2, intragastric, 6 h after administration, listed as FTY720-1): 325.78
- heart rate 6 h (SD rat heart rate; Table 2, intragastric, 6 h after administration, listed as FTY720-2): 327.82
- heart rate 6 h (SD rat heart rate; Table 2, intragastric, 6 h after administration, listed as FTY720-3): 342.00
- heart rate 6 h (SD rat heart rate; Table 2, intragastric, 6 h after administration, listed as average of FTY720): 331.86
- heart rate 8 h (SD rat heart rate; Table 2, intragastric, 8 h after administration, listed as FTY720-1): 341.00
- heart rate 8 h (SD rat heart rate; Table 2, intragastric, 8 h after administration, listed as FTY720-2): 338.78
- heart rate 8 h (SD rat heart rate; Table 2, intragastric, 8 h after administration, listed as FTY720-3): 342.50
- heart rate 8 h (SD rat heart rate; Table 2, intragastric, 8 h after administration, listed as average of FTY720): 340.76
- heart rate 24 h (SD rat heart rate; Table 2, intragastric, 24 h after administration, listed as FTY720-1): 329.67
- heart rate 24 h (SD rat heart rate; Table 2, intragastric, 24 h after administration, listed as FTY720-2): 365.07
- heart rate 24 h (SD rat heart rate; Table 2, intragastric, 24 h after administration, listed as FTY720-3): 363.44
- heart rate 24 h (SD rat heart rate; Table 2, intragastric, 24 h after administration, listed as average of FTY720): 352.72
- heart rate pre-administration (SD rat heart rate; Table 2, intragastric, listed as FTY720-1): 396.28
- heart rate pre-administration (SD rat heart rate; Table 2, intragastric, listed as FTY720-2): 398.60
- heart rate pre-administration (SD rat heart rate; Table 2, intragastric, listed as FTY720-3): 398.22
- heart rate pre-administration (SD rat heart rate; Table 2, intragastric, listed as average of FTY720): 397.70
- Δ % = the percentage of change of rat heart rate before and after administration (SD rat heart rate; Table 4): 26.16%
- heart rate 0.5 h (SD rat heart rate; Table 4, intragastric, 0.5 h): 356.33
- heart rate 1 h (SD rat heart rate; Table 4, intragastric, 1 h): 319.22
- heart rate 3 h (SD rat heart rate; Table 4, intragastric, 3 h): 288.58
- heart rate 6 h (SD rat heart rate; Table 4, intragastric, 6 h): 280.13
- heart rate 8 h (SD rat heart rate; Table 4, intragastric, 8 h): 308.08
- heart rate 24 h (SD rat heart rate; Table 4, intragastric, 24 h): 323.25
- heart rate 0 (SD rat heart rate; Table 4, intragastric, time 0, before administration): 379.42
- HR delta % (SD rat heart rate; Table 6, listed as FTY720-1): 21.86%
- HR delta % (SD rat heart rate; Table 6, listed as FTY720-2): 22.61%
- heart rate 1 h (SD rat heart rate; Table 6, intragastric, 1 h, listed as FTY720-1): 389.62 ± 30.01
- heart rate 1 h (SD rat heart rate; Table 6, intragastric, 1 h, listed as FTY720-2): 389.62 ± 23.39
- heart rate 4 h (SD rat heart rate; [2]): 340.17 ± 32.04
- heart rate 4 h (SD rat heart rate; [3]): 354.27 ± 15.79
- heart rate 8 h (SD rat heart rate; Table 6, intragastric, 8 h, listed as FTY720-1): 361.69 ± 27.99
- heart rate 8 h (SD rat heart rate; Table 6, intragastric, 8 h, listed as FTY720-2): 346.91 ± 26.41
- heart rate 12 h (SD rat heart rate; [2]): 360.62 ± 18.19
- heart rate 12 h (SD rat heart rate; [3]): 335.67 ± 16.30
- heart rate 24 h (SD rat heart rate; Table 6, intragastric, 24 h, listed as FTY720-1): 410.31 ± 32.13
- heart rate 24 h (SD rat heart rate; Table 6, intragastric, 24 h, listed as FTY720-2): 370.18 ± 26.82
- heart rate pre-administration (SD rat heart rate; [2]): 435.36 ± 47.99
- heart rate pre-administration (SD rat heart rate; [3]): 433.75 ± 30.84
- HR delta % (SD rat heart rate; Table 9): 17.80%
- heart rate 0.5 h (SD rat heart rate; Table 9, intragastric, 0.5 h): 361.28 ± 22.91
- heart rate 1 h (SD rat heart rate; Table 9, intragastric, 1 h): 331.71 ± 12.26
- heart rate 3 h (SD rat heart rate; Table 9, intragastric, 3 h): 329.33 ± 11.32
- heart rate 6 h (SD rat heart rate; Table 9, intragastric, 6 h): 327.82 ± 15.60
- heart rate 8 h (SD rat heart rate; Table 9, intragastric, 8 h): 338.78 ± 12.07
- heart rate 24 h (SD rat heart rate; Table 9, intragastric, 24 h): 365.07 ± 19.47
- heart rate pre-administration (SD rat heart rate; Table 9, intragastric): 398.60 ± 33.20
